We go through 13 molecules from patent publication US20030171218A1, “Substituted 3-heteroaryl(amino- or oxy)pyrrolidin-2-ones, their preparation and use as herbicides or plant growth regulators” (priority 2001, published 2003).

For data set [1], the system named is harmful plants such as Digitaria sanguinalis, Echinochloa crus-galli, Setaria faberi, Setaria viridis, Sorghum halepense, Abutilon theophrasti, Amaranthum …. Kind of data set: Post-emergence effect on weeds (greenhouse pot test). In kind it is in vivo, monocotyledonous and dicotyledonous weeds. The settings on record: application rate of 1 kg and less of active substance per hectare; treated at three-leaf stage; scored visually after about 3 to 4 weeks by comparison with untreated controls. A digest of the protocol: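 Greenhouse-grown weeds in sandy loam, sprayed at three-leaf stage (three weeks after sowing) with wettable powder or emulsion concentrate formulations at various dosages in 600 to 800 l water/ha. Effect scored visually against untreated controls after about 3 to 4 weeks.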

For data set [2], the system named is weed plants such as Digitaria sanguinalis, Echinochloa crus-galli, Setaria faberi, Setaria viridis, Sorghum halepense, Abutilon theophrasti, Amaranthum …. The data set is described as follows: Pre-emergence effect on weeds (greenhouse pot test). The data set is classed as in vivo, monocotyledonous and dicotyledonous weed plants. Conditions: application rate of 1 kg or less of active substance per hectare; scored visually after 3 to 4 weeks by comparison with untreated controls. A digest of the protocol:
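Weed seeds or rhizome pieces sown in sandy loam and covered; compounds, formulated as wettable powders or emulsion concentrates, sprayed onto the soil surface as aqueous suspensions/emulsions at 600 to 800 l water/ha in various dosages. Greenhouse growth; visual scoring of plant damage/emergence versus untreated controls after 3 to 4 weeks.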

`CC(C)c1nc(N)nc(NC2CCN(c3ccccc3)C2=O)n1` (stereo not shown) [Example A20] returned a melting point of 210 °C. In addition, the herbicidal activity post-emergence result in data set [1] was “very good herbicidal activity”. Moreover, in data set [2], the herbicidal activity pre-emergence entry was “very good herbicidal activity”.
`CC(C)(F)c1nc(N)nc(OC2CCN(c3ccccc3)C2=O)n1` (stereo not shown) [Example A55] returned a melting point of 77 °C. The herbicidal activity post-emergence entry in data set [1] is reported as “very good herbicidal activity”. Further, the herbicidal activity pre-emergence result in data set [2] is given as “very good herbicidal activity”.
As to `CC(F)c1nc(N)nc(N(C)C2CCN(c3cccc(C(F)(F)F)c3)C2)n1` (stereo not shown) [Example E57], the herbicidal activity post-emergence result in data set [1] is listed as “very good herbicidal activity”. Further, the herbicidal activity pre-emergence result in data set [2] is recorded as “very good herbicidal activity”.
Turning to `CC(F)c1nc(N)nc(N(C)C2CCN(c3cccc(OC(F)(F)F)c3)C2)n1` (stereo not shown) [Example E58], in data set [1], the herbicidal activity post-emergence entry is “very good herbicidal activity”. For the same molecule, the herbicidal activity pre-emergence entry in data set [2] is “very good herbicidal activity”.
Turning to `Cc1cc(C)cc(N2CCC(N(C)c3nc(N)nc(C(C)F)n3)C2)c1` (stereo not shown) [Example E59], the herbicidal activity post-emergence entry in data set [1] was “very good herbicidal activity”. The herbicidal activity pre-emergence entry in data set [2] is recorded as “very good herbicidal activity”.
As for `CC(F)c1nc(N)nc(N(C)C2CCN(c3cccc(Cl)c3)C2)n1` (stereo not shown) [Example E64], in data set [1], the herbicidal activity post-emergence entry is on record as “very good herbicidal activity”. Also, the herbicidal activity pre-emergence entry in data set [2] was “very good herbicidal activity”.
Regarding `CC(C)c1nc(N)nc(N(C)C2CCN(c3cccc(C(F)(F)F)c3)C2)n1` (stereo not shown) [Example E66], the herbicidal activity post-emergence result in data set [1] is on record as “very good herbicidal activity”. For the same molecule, the herbicidal activity pre-emergence entry in data set [2] is on record as “very good herbicidal activity”.
Turning to `CC(C)c1nc(N)nc(N(C)C2CCN(c3cccc(OC(F)(F)F)c3)C2)n1` (stereo not shown) [Example E67], the herbicidal activity post-emergence result in data set [1] is listed as “very good herbicidal activity”. Further, the herbicidal activity pre-emergence entry in data set [2] is reported as “very good herbicidal activity”.
As for `Cc1cc(C)cc(N2CCC(N(C)c3nc(N)nc(C(C)C)n3)C2)c1` (stereo not shown) [Example E68], the herbicidal activity post-emergence entry in data set [1] is listed as “very good herbicidal activity”. Moreover, the herbicidal activity pre-emergence result in data set [2] was “very good herbicidal activity”.
Turning to `CC(C)c1nc(N)nc(N(C)C2CCN(c3cccc(Cl)c3)C2)n1` (stereo not shown) [Example E73], in data set [1], the herbicidal activity post-emergence entry is given as “very good herbicidal activity”. In addition, the herbicidal activity pre-emergence entry in data set [2] is given as “very good herbicidal activity”.
Turning to `CC(F)c1nc(N)nc(OC2CCN(C(C)(C)c3cccc(Cl)c3)C2=O)n1` (stereo not shown) [Example F1], in data set [1], the herbicidal activity post-emergence entry is listed as “very good herbicidal activity”. The herbicidal activity pre-emergence entry in data set [2] is on record as “very good herbicidal activity”.
Turning to `CC(C)c1nc(N)nc(OC2CCN(C(C)(C)c3cccc(Cl)c3)C2=O)n1` (stereo not shown) [Example F2], in data set [1], the herbicidal activity post-emergence result is recorded as “very good herbicidal activity”. Further, the herbicidal activity pre-emergence entry in data set [2] is on record as “very good herbicidal activity”.
As to `CC(C)(F)c1nc(N)nc(OC2CCN(C(C)(C)c3cccc(Cl)c3)C2=O)n1` (stereo not shown) [Example F3], in data set [1], the herbicidal activity post-emergence result is on record as “very good herbicidal activity”. In data set [2], the herbicidal activity pre-emergence result is given as “very good herbicidal activity”.

By melting point is commonly meant the temperature, or range, at which the solid turns liquid.
